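GI50 = concentration required for 50% inhibition of growth. TGI marks complete inhibition of growth.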
What was measured:
Assay in all cases: inhibition of tumour cell growth, NCI panel, 384-well format
[1] = test system: 786-0 renal
[2] = test system: MCF7 breast
[3] = test system: MOLT-4 leukemia
[4] = test system: ACHN renal
[5] = test system: SNB-75 CNS
[6] = test system: HCT-15 colon
[7] = test system: OVCAR-3 ovarian
[8] = test system: TK-10 renal
[9] = test system: SN12C renal
[10] = test system: T-47D breast
[11] = test system: SF-539 CNS
[12] = test system: MDA-MB-231 breast
[13] = test system: A549 NSCLC
[14] = test system: COLO 205 colon
[15] = test system: SNB-19 CNS
[16] = test system: CCRF-CEM leukemia
[17] = test system: SK-OV-3 ovarian
[18] = test system: K-562 leukemia
[19] = test system: HCC-2998 colon
[20] = test system: DU-145 prostate
[21] = test system: NCI-H322M lung
[22] = test system: HS 578T breast
[23] = test system: NCI-H226 lung
[24] = test system: SK-MEL-28 melanoma
[25] = test system: PC-3 prostate
[26] = test system: KM12 colon
[27] = test system: MALME-3M melanoma
[28] = test system: NCI-H23 lung
[29] = test system: M14 melanoma
[30] = test system: LOX IMVI melanoma
[31] = test system: NCI-H460 NSCLC
[32] = test system: HOP-92 NSCLC
[33] = test system: SR leukemia
[34] = test system: EKVX NSCLC
[35] = test system: NCI/ADR-RES ovarian
[36] = test system: RPMI-8226 leukemia
[37] = test system: SK-MEL-2 melanoma
[38] = test system: OVCAR-4 ovarian
[39] = test system: HCT-116 colon
[40] = test system: HL-60(TB) leukemia
[41] = test system: NCI-H522 lung
[42] = test system: UACC-257 melanoma
[43] = test system: CAKI-1 renal
[44] = test system: SF-268 CNS
[45] = test system: OVCAR-8 ovarian
[46] = test system: UACC-62 melanoma
[47] = test system: HT29 colon
[48] = test system: SK-MEL-5 melanoma
[49] = test system: OVCAR-5 ovarian
[50] = test system: A498 renal
[51] = test system: IGROV1 ovarian
[52] = test system: SW-620 colon
[53] = test system: RXF 393 renal
[54] = test system: MDA-MB-468 breast
[55] = test system: BT-549 breast
[56] = test system: HOP-62 NSCLC
[57] = test system: U251 glioblastoma
[58] = test system: SF-295 CNS
[59] = test system: MDA-MB-435 melanoma

SMILES: CN(C)CCN(C)CC(C)(C)C(=O)/C=C/c1ccc(Cl)cc1
- GI50 [1]: 2.91 µM
- TGI [1]: 9.33 µM
- GI50 [2]: 17.2 µM
- TGI [2]: 31.2 µM
- GI50 [3]: 1.76 µM
- TGI [3]: 3.2 µM
- GI50 [4]: 2.02 µM
- TGI [4]: 7.29 µM
- GI50 [5]: 2.91 µM
- TGI [5]: 7.32 µM
- GI50 [6]: 5.08 µM
- TGI [6]: 17.8 µM
- GI50 [7]: 1.75 µM
- TGI [7]: 4.03 µM
- GI50 [8]: 2.44 µM
- TGI [8]: 6.06 µM
- GI50 [9]: 2.09 µM
- TGI [9]: 5.98 µM
- GI50 [10]: 17.9 µM
- TGI [10]: 31.9 µM
- GI50 [11]: 10.5 µM
- TGI [11]: 22.4 µM
- GI50 [12]: 3.1 µM
- TGI [12]: 8.03 µM
- GI50 [13]: 3.3 µM
- TGI [13]: 11.1 µM
- GI50 [14]: 5.88 µM
- TGI [14]: 17.1 µM
- GI50 [15]: 2.93 µM
- TGI [15]: 9.62 µM
- GI50 [16]: 1.68 µM
- TGI [16]: 3.05 µM
- GI50 [17]: 2.24 µM
- TGI [17]: 5.95 µM
- GI50 [18]: 1.72 µM
- TGI [18]: 3.44 µM
- GI50 [19]: 4.45 µM
- TGI [19]: 13.7 µM
- GI50 [20]: 3.22 µM
- TGI [20]: 8.86 µM
- GI50 [21]: 3.11 µM
- TGI [21]: 7.72 µM
- GI50 [22]: 2.55 µM
- TGI [22]: 6.02 µM
- GI50 [23]: 5.39 µM
- TGI [23]: 16.2 µM
- GI50 [24]: 3.06 µM
- TGI [24]: 10.2 µM
- GI50 [25]: 2.62 µM
- TGI [25]: 5.93 µM
- GI50 [26]: 2.45 µM
- TGI [26]: 5.05 µM
- GI50 [27]: 4.76 µM
- TGI [27]: 14.6 µM
- GI50 [28]: 5.84 µM
- TGI [28]: 18.2 µM
- GI50 [29]: 2.07 µM
- TGI [29]: 4.06 µM
- GI50 [30]: 0.764 µM
- TGI [30]: 2.12 µM
- GI50 [31]: 2.03 µM
- TGI [31]: 4.12 µM
- GI50 [32]: 2.09 µM
- TGI [32]: 4.65 µM
- GI50 [33]: 1.42 µM
- TGI [33]: 2.73 µM
- GI50 [34]: 2.14 µM
- TGI [34]: 5.07 µM
- GI50 [35]: 2.06 µM
- TGI [35]: 3.98 µM
- GI50 [36]: 1.71 µM
- TGI [36]: 3.17 µM
- GI50 [37]: 1.55 µM
- TGI [37]: 3.32 µM
- GI50 [38]: 2.37 µM
- TGI [38]: 5.73 µM
- GI50 [39]: 2 µM
- TGI [39]: 4.18 µM
- GI50 [40]: 1.94 µM
- TGI [40]: 3.37 µM
- GI50 [41]: 1.34 µM
- TGI [41]: 2.77 µM
- GI50 [42]: 2.36 µM
- TGI [42]: 4.96 µM
- GI50 [43]: 2.92 µM
- TGI [43]: 12 µM
- GI50 [44]: 2.39 µM
- TGI [44]: 5.29 µM
- GI50 [45]: 2.24 µM
- TGI [45]: 4.8 µM
- GI50 [46]: 1.91 µM
- TGI [46]: 3.75 µM
- GI50 [47]: 3.26 µM
- TGI [47]: 11.8 µM
- GI50 [48]: 1.9 µM
- TGI [48]: 4.08 µM
- GI50 [49]: 7.14 µM
- TGI [49]: 19.7 µM
- GI50 [50]: 2.78 µM
- TGI [50]: 7.47 µM
- GI50 [51]: 2.53 µM
- TGI [51]: 6.1 µM
- GI50 [52]: 2.09 µM
- TGI [52]: 4.45 µM

SMILES: CN(C)c1ccc(N)c2ccccc12
- GI50 [1]: 2.16 µM
- TGI [1]: 9.6 µM
- GI50 [2]: 1.34 µM
- TGI [2]: 2.64 µM
- GI50 [53]: 2.68 µM
- TGI [53]: 10.5 µM
- GI50 [3]: 0.802 µM
- TGI [3]: 2.48 µM
- GI50 [4]: 12.1 µM
- TGI [4]: 24.6 µM
- GI50 [5]: 2.39 µM
- TGI [5]: 7.53 µM
- GI50 [6]: 1.47 µM
- TGI [6]: 3.54 µM
- GI50 [7]: 1.16 µM
- TGI [7]: 2.52 µM
- GI50 [8]: 11.3 µM
- TGI [8]: 23.5 µM
- GI50 [9]: 1.76 µM
- TGI [9]: 3.19 µM
- GI50 [11]: 1.75 µM
- TGI [11]: 3.3 µM
- GI50 [54]: 0.591 µM
- TGI [54]: 4.61 µM
- GI50 [13]: 4.16 µM
- TGI [13]: 16.6 µM
- GI50 [14]: 2.09 µM
- TGI [14]: 4.21 µM
- GI50 [15]: 3.4 µM
- TGI [15]: 11.7 µM
- GI50 [16]: 4.65 µM
- TGI [16]: 19.1 µM
- GI50 [17]: 10.1 µM
- TGI [17]: 21.8 µM
- GI50 [18]: 18.4 µM
- TGI [18]: 32.4 µM
- GI50 [19]: 2.4 µM
- TGI [19]: 16.2 µM
- GI50 [20]: 1.41 µM
- TGI [20]: 2.73 µM
- GI50 [21]: 2.1 µM
- TGI [21]: 3.86 µM
- GI50 [22]: 2.44 µM
- TGI [22]: 6.72 µM
- GI50 [23]: 1.28 µM
- TGI [23]: 7.63 µM
- GI50 [24]: 1.76 µM
- TGI [24]: 3.71 µM
- GI50 [25]: 1.34 µM
- TGI [25]: 6.24 µM
- GI50 [26]: 3.65 µM
- TGI [26]: 14.8 µM
- GI50 [27]: 0.448 µM
- TGI [27]: 1.68 µM
- GI50 [28]: 1.47 µM
- TGI [28]: 2.88 µM
- GI50 [29]: 1.5 µM
- TGI [29]: 2.84 µM
- GI50 [30]: 0.217 µM
- TGI [30]: 1.56 µM
- GI50 [31]: 2.93 µM
- TGI [31]: 10.4 µM
- GI50 [32]: 5.85 µM
- TGI [32]: 19.5 µM
- GI50 [55]: 1.5 µM
- TGI [55]: 2.84 µM
- GI50 [34]: 1.7 µM
- TGI [34]: 8.1 µM
- GI50 [35]: 11.8 µM
- TGI [35]: 24.6 µM
- GI50 [56]: 1.59 µM
- TGI [56]: 2.98 µM
- GI50 [36]: 1.83 µM
- TGI [36]: 5.98 µM
- GI50 [37]: 1.26 µM
- TGI [37]: 2.77 µM
- GI50 [38]: 0.397 µM
- TGI [38]: 3.65 µM
- GI50 [39]: 2.2 µM
- TGI [39]: 5.93 µM
- GI50 [40]: 0.814 µM
- TGI [40]: 2.1 µM
- GI50 [57]: 7.75 µM
- TGI [57]: 20.4 µM
- GI50 [41]: 2.77 µM
- TGI [41]: 11.6 µM
- GI50 [58]: 7.17 µM
- TGI [58]: 20.1 µM
- GI50 [42]: 1.04 µM
- TGI [42]: 2.22 µM
- GI50 [43]: 13.1 µM
- TGI [43]: 26 µM
- GI50 [44]: 8.32 µM
- TGI [44]: 20.5 µM
- GI50 [45]: 5.33 µM
- TGI [45]: 17.5 µM
- GI50 [46]: 1.24 µM
- TGI [46]: 2.5 µM
- GI50 [47]: 4.55 µM
- TGI [47]: 16.4 µM
- GI50 [48]: 0.146 µM
- TGI [48]: 1.61 µM
- GI50 [50]: 11.9 µM
- TGI [50]: 24.3 µM
- GI50 [59]: 1.36 µM
- TGI [59]: 2.65 µM
- GI50 [51]: 1.86 µM
- TGI [51]: 16.1 µM
- GI50 [52]: 1.64 µM
- TGI [52]: 3.11 µM

Reference: PubChem BioAssay (NCI)
